Measured values taken from patent publication US10889552B2, “Dihydroxybenzamide compound having HSP90 inhibitory activity or pharmaceutically acceptable salt thereof, and medical use thereof” (priority 2016, dated 2021).

What was measured:
H1975 cells [1] = assay: Cell viability by MTS analysis in H1975 cells resistant to Gefitinib; type: cell-based; details: H1975, cultured for 3 days
Procedure: To confirm the cell viability according to the concentration of the compound synthesized in H1975 cells (ATCC) resistant to Gefitinib, MTS [3-(4,5-dimethylthiazol-2-yl)-5-[…]carboxymethoxyphenyl)-2-(4-sulfophenyl)-2H-terazolium, inner salt] analysis was performed. When the cells were cultured so as to occupy 80% of the bottom of the culture dish, the cells were detached and diluted with RPMI 1640 medium to a concentration of 1.5×10^3 cells/well. Each 100 μL of the suspension was added to each well of a 96-well plate and cultured for 14 hours.

[2] = tested on: HSP90 client protein (Her2, EGFR, Met, c-Raf, Akt), HSP70; assay: Analysis of protein expression (western blot) in H1975 cells, Compound 21f; type: cell-based
Procedure: Compound 21f having good efficacy was selected and HSP90 client protein proliferation effect in the same cell line was confirmed, in which the HSP90 client proteins were Her2 (human EGFR-related 2), EGFR (epidermal growth factor receptor), Met and c-Raf were used.
H1975 cells resistant to Gefitinib were cultured in a medium supplemented with 10% fetal bovine serum (FBS) for 24 hours, and the cells were detached, harvested and diluted with a RPMI 1640 medium so as to be 5×10^5 cells/well. Each 5 mL of the suspension was added to […] culture dish and cultured for 24 hours. Then, the medium was changed to the culture solution treated with each compound of concentration (21f 0, 0.05, 0.1, 0.5 or 1 μM, GA: 1 μM), and cultured for 24 hours. After culture, the cells were harvested and centrifuged at 1300 rpm for 5 minutes at 4° C., and the supernatant was removed. The pellet was washed with phosphate buffered saline, centrifuged once again under the same conditions, and the supernatant was removed. Lysis buffer was added to the remaining pellet and lysed by vortexing at 5 minute intervals for 30 minutes. The supernatant was separated by centrifugation at 16000 rcf for 4 minutes at 4° C., and proteins were quantified using BCA ([…]) kit. SDS-PAGE (sodium dodecylsulfate-polyacrylamide gel electrophoresis) was performed using 10, 12% running gel and 4% stacking gel (10 mA per gel). The separated proteins were transferred to an immunoblot PVDF, membrane (polyvinylidene fluoride membrane) at 100 V for 75 minutes. The membranes were blocked with 5% skim milk solution for 2 hours and then added a primary antibody diluted in the ratio of 1:750-1,000 in 0.1% tween-20 solution and reacted at 4° C. for 12 hours. After washing three times with TBS-T (Tris-buffered saline and Tween 20 containing Tween 20) and detected with an image analyzer using ECL (enhanced chemiluminescence) solution.

H1975 = assay: Cell proliferation / survival inhibition by MTS analysis (H1975); type: cell-based; details: for Inhibition rate at 10 μM (%) / Inhibition rate at 30 μM (%): test system not given
Procedure: Sk-Br3 (Korean cell line bank), a breast cancer cell, and H1975 cell (ATCC), a nonsmall cell lung cancer, were cultured in RPMI 1640 containing 25 mM HEPES (4-(2-hydroxyethyl)-1-piperazineethanesulfonic acid) and RPMI 1640 containing L-glutamine (containing streptomycin ([…]), penicillin (100 units/mL) and 10% fetal bovine serum (FBS)).
Next, non-metastatic lung cancer cells were treated with Compound 17 and the cell proliferation rate or cell survival rate was measured by MTS [3-(4,5-dimethylthiazol-2-yl)-5-(3-carboxymethoxyphenyl)-1-2H-tetrazolium, inner salt] analysis.
Cells were dispensed in 96-well plates at 3000 cell/well (Sk-Br3) and 2000 cell/well (H1975), and 100 μL of the medium was added per well and then was incubated overnight.
Cell proliferation was evaluated using the Promega Cell Titer 96 Aqueous One Solution cell proliferation assay.
After compound and cell culture, 20 μL of assay substrate solution was added to each well and incubated at 37° C. for an additional 1 hour.
Cell proliferation was confirmed by measuring the absorbance at 490 nm using a microplate reader (Tecan Infinite F200 Proplate reader).

Log P = type: physicochemical; details: text: measured values of Log P
Procedure: All experimental data were analyzed using Prism software (version 5.0, Graphpad Software, San Diego, Calif.). In addition, tPSA (Topological Polar Surface Area) calculated using Cherndraw software and the measured values of Log P are shown in Tables 1 and 2 below.

H1975 cells [3] = assay: H1975 colony formation inhibitory effect (clonogenic assay); type: cell-based; details: at 0.05 µM), 3 weeks, FIG. 3
Procedure: H1975 cells were treated with Compound 17 at a concentration of 0.05 or 0.5 μM for 3 weeks and then clogenic assay was performed.
First, RPMI1640 medium (10% FBS, 0.48% agar) was added to a 6-well plate and hardened, and then, 10000 cells (H1975) were dispensed in a medium containing RPMI1640 medium (10% FBS, 0.33% agar) and solidified. After solidification, the cells were treated with compound at a concentration of 0.05 or 0.5 […] for 24 hours, followed by culturing for 3 weeks, and then colony formation was confirmed using a crystal violet staining solution.

[4] = tested on: HSP90 client protein of EGFR, Her2, Met, Akt, c-Raf, Cpk4; assay: Protein expression analysis (western blot) after Compound 17 treatment; type: cell-based; details: 0.05, 0.1, 0.5 or 1 μM, 24 hours, FIG. 4
Procedure: Next, the cells were dispensed into 100 mm culture dishes (1×10^6/dish) and adhered to the bottom surface overnight. Compound 17 at a concentration of 0.05, 0.1, 0.5 or 1 μM was added to the cells, followed by further culture for 24 hours.
In addition, cells were treated with DMSO (1%) or geladinamycin (1 μM) as a control and cultured for 24 hours.
The cultured cells were harvested and lysed in ice-cold lysis buffer (23 mM Tris-HCl pH 7.6, 130 mM NaCl, 1% NP40, […], 0.1% SDS (sodium dodecylsulfate)), and 30 μg of the lysate was separated by SDS-PAGE (SDS-polyacrylamide gel electrophoresis) and transferred to a PVDF membrane (Bio-Rad).
Membranes were blocked with TBST (Tween 20 containing iris-Buffered Saline) containing 5% skim milk and incubated with the respective primary antibodies [EGFR (Epidermal growth factor receptor), Her2 (human epidermal growth factor receptor type 2), Met, N-cadherin, E-cadherin, α-tubulin, acetyl-α-tubulin, protein kinase B (Akt), c-Raf, Cdk4 (Cyclin-dependent kinase 4), HSP90, HSP70, PARP (Poly […] Polymerase), caspase 3, cleaved caspase 3, truncated caspase 8, B-cell lymphoma 2 (Bcl-2). Bax or β-Actin, purchased from Cell Signaling Technology (USA)].
After binding to a secondary antibody conjugated with horseradish peroxidase, the protein was visualized by ECL (electrochemiluminescence, GE healthcare, USA).

Compound: 5-chloro-2,4-dihydroxy-n-methyl-n-(2-methylbenzyl)benzamide [Compound 16a]
- EC50 (H1975 cells [1]): 49.3 µM

Compound: COc1ccc(CN(C)C(=O)c2cc(Cl)c(O)cc2O)cc1OC [Compound 14d, 5-chloro-n-(3,4-dimethoxybenzyl)-2,4-dihydroxy-n-methylbenzamide]
- EC50 (H1975 cells [1]): 33.4 µM

Compound: CCNC(=O)c1ccc(CN(C)C(=O)c2cc(Cl)c(O)cc2O)cc1 [Compound 21b, 5-chloro-n-(4-(ethylcarbamoyl)benzyl)-2,4-dihydroxy-n-methylbenzamide]
- EC50 (H1975 cells [1]): 21.7 µM

Compound: COc1cc(CN(C)C(=O)c2cc(Cl)c(O)cc2O)c(Cl)c(OC)c1OC [Compound 14g, 5-chloro-n-(2-chloro-3,4,5-trimethoxybenzyl)-2,4-dihydroxy-n-methylbenzamide]
- EC50 (H1975 cells [1]): 33.8 µM

Compound: 5-chloro-2,4-dihydroxy-n-methyl-n-(3-methylbenzyl)benzamide [Compound 14i]
- EC50 (H1975 cells [1]): 47.5 µM

Compound: CCCNC(=O)c1ccc(CN(C)C(=O)c2cc(C(C)C)c(O)cc2O)cc1 [Compound 21f, 2,4-dihydroxy-5-isopropyl-n-methyl-n-(4-(propylcarbamoyl)benzyl) benzamide]
- proliferation (expression) of the HSP90 client protein ([2]; 0, 0.05, 0.1, 0.5 or 1 μM, 24 hours, FIG. 5): inhibited in a concentration-dependent manner
- concentration at which Akt expression was significantly decreased ([2]; H1975, 24 hours): 0.5 µM
- concentration at which EGFR expression was significantly decreased ([2]; H1975, 24 hours): 0.1 µM
- concentration at which Her2 expression was significantly decreased ([2]; H1975, 24 hours): 0.5 µM
- concentration at which Met expression was significantly decreased ([2]; H1975, 24 hours): 0.5 µM
- concentration at which expression of HSP70 was increased ([2]; H1975, 24 hours): 0.5 µM

Compound: O=C(c1cc(Cl)c(O)cc1O)N1CCCCC1 [Compound 11b]
- Inhibition rate at 10 μM (%) (H1975): 7.6%
- Inhibition rate at 30 μM (%) (H1975): 26.3%
- LogP (Log P): 1.69

Compound: CC(=O)N1CCN(C(=O)c2cc(Cl)c(O)cc2O)CC1 [Compound 11f, 1-(4-(5-chloro-2,4-dihydroxybenzol)piperazin-1-yl)ethanone]
- Inhibition rate at 10 μM (%) (H1975): 0%
- Inhibition rate at 30 μM (%) (H1975): 10.5%
- LogP (Log P): 0.25

Compound: Cc1ccc(CN(C)C(=O)c2cc(Cl)c(O)cc2O)cc1 [Compound 16b, 5-chloro-2,4-dihydroxy-n-methyl-n-(4-methylbenzyl)benzamide]
- EC50 (H1975 cells [1]): 34.3 µM

Compound: CCCNC(=O)c1ccc(CN(C)C(=O)c2cc(Cl)c(O)cc2O)cc1 [Compound 21c, 5-chloro-2,4-dihydroxy-n-methyl-n-(4-(propylcarbamoyl)benzyl)benzamide]
- EC50 (H1975 cells [1]): 20.8 µM

Compound: CC(C)c1cc(C(=O)N2CCN(C)CC2c2ccccc2)c(O)cc1O (centres unmarked) [Compound 17, (2,4-dihydroxy-5-isopropylphenyl)(4-methyl-2-phenylpiperazin-1-yl)methanone]
- proliferation rate of the cells (H1975; 0-70 μM, 1, 2 and 3 days, FIG. 2A): inhibited in a concentration-dependent manner
- colony formation of H1975 (H1975 cells [3]): inhibited the colony formation
- HSP protein inhibition / degradation of HSP90 client protein [4]: inhibited HSP protein in concentration-dependent manner

Compound: COc1ccc(CN(C)C(=O)c2cc(Cl)c(O)cc2O)cc1 [Compound 14c, 5-chloro-2,4-dihydroxy-n-(4-methoxybenzyl)-n-methylbenzamide]
- EC50 (H1975 cells [1]): 16.7 µM
